Values quoted from earlier work, collected in patent US5817883A, “Processes for producing hydroxyaldehydes” (Union Carbide Chemicals & Plastics Technology Corporation, priority 1997, dated 1998).

Settings: Table I, organophosphorus ligand basicity

| Structure (SMILES) | pKb |
| --- | --- |
| CCP(CC)C(C)(C)C [Diethyl-tert-butylphosphine] | 10.1 |
| CCP(CC)c1ccccc1 [Diethylphenylphosphine] | 6.4 |
| c1ccc(P(c2ccccc2)C2CCCCC2)cc1 [Diphenylcyclohexylphosphine] | 5 |
| CCP(c1ccccc1)c1ccccc1 [Diphenylethylphosphine] | 4.9 |
| CP(c1ccccc1)c1ccccc1 [Diphenylmethylphosphine] | 4.5 |
| CN(C)c1ccc(P(c2ccc(N(C)C)cc2)c2ccc(N(C)C)cc2)cc1 [Tri(p-N,N-dimethylaminophenyl)phosphine] | 8.65 |
| COc1ccc(P(c2ccc(OC)cc2)c2ccc(OC)cc2)cc1 [Tri(p-methoxyphenyl)phosphine] | 4.6 |
| CCCCP(CCCC)CCCC [Tri-n-butylphosphine] | 8.4 |
| CCCCCCCCP(CCCCCCCC)CCCCCCCC [Tri-n-octylphosphine] | 8.4 |
| CCCP(CCC)CCC [Tri-n-propylphosphine] | 8.7 |
| C1CCC(P(C2CCCCC2)C2CCCCC2)CC1 [Tricyclohexylphosphine] | 10 |
| CCP(CC)CC [Triethylphosphine] | 8.7 |
| CP(C)C [Trimethylphosphine] | 8.7 |
| c1ccc(P(c2ccccc2)c2ccccc2)cc1 [Triphenylphosphine, reference compound] | 2.74 |

Same assay, conditions: basicity of reference phosphine

| Structure (SMILES) | pKb |
| --- | --- |
| c1ccc(P(c2ccccc2)c2ccccc2)cc1 [Triphenylphosphine, reference compound] | 2.74 |
